# Values of other authors in article PMC9516332 (Frontiers in Oncology, 2022).
# Like-named read-outs stand apart in the source and are kept apart here.
# How the values were obtained:
# Details in all cases: cited from earlier work
# [1] = target: panel of 255 wild-type kinases (Homo sapiens, UniProt P11362)
# [2] = target: panel of 255 wild-type kinases (Homo sapiens, UniProt Q15303)
# [3] = target: T1, panel of 255 wild-type kinases (Homo sapiens, UniProt P29320)
# T1 sequence (P29320 21-983): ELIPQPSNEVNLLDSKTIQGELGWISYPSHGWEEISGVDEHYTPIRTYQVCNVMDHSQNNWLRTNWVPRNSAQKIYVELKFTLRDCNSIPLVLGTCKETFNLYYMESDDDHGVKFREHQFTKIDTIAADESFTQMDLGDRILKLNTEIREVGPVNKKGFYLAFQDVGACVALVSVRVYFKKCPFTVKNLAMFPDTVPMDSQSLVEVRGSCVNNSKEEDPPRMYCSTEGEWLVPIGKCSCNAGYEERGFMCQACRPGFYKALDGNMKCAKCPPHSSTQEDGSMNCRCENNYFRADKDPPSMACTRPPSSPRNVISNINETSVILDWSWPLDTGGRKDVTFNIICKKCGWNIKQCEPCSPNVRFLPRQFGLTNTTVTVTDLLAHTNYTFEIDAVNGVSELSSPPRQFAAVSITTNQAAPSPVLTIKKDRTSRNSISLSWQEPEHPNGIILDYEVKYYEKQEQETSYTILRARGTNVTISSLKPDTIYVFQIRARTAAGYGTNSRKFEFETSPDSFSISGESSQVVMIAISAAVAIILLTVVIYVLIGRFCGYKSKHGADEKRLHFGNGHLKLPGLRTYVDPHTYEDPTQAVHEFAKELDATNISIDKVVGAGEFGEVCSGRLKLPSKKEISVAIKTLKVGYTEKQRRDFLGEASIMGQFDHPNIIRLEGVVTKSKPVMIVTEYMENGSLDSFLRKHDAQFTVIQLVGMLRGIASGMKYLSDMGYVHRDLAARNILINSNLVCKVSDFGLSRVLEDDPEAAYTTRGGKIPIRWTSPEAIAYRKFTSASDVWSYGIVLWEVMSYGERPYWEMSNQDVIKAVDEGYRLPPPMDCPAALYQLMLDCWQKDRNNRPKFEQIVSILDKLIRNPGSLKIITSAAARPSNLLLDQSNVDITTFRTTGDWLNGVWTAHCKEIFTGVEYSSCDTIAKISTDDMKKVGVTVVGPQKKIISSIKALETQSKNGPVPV
# [4] = target: panel of 255 wild-type kinases (Homo sapiens, UniProt P48730)
# [5] = target: panel of 255 wild-type kinases (Homo sapiens, UniProt Q07912)
# [6] = target: panel of 255 wild-type kinases (Homo sapiens, UniProt Q96RG2)
# [7] = target: panel of 255 wild-type kinases (Homo sapiens, UniProt P04626)
# [8] = target: T2, panel of 255 wild-type kinases (Homo sapiens, UniProt Q8TD19)
# T2 sequence (Q8TD19 1-979): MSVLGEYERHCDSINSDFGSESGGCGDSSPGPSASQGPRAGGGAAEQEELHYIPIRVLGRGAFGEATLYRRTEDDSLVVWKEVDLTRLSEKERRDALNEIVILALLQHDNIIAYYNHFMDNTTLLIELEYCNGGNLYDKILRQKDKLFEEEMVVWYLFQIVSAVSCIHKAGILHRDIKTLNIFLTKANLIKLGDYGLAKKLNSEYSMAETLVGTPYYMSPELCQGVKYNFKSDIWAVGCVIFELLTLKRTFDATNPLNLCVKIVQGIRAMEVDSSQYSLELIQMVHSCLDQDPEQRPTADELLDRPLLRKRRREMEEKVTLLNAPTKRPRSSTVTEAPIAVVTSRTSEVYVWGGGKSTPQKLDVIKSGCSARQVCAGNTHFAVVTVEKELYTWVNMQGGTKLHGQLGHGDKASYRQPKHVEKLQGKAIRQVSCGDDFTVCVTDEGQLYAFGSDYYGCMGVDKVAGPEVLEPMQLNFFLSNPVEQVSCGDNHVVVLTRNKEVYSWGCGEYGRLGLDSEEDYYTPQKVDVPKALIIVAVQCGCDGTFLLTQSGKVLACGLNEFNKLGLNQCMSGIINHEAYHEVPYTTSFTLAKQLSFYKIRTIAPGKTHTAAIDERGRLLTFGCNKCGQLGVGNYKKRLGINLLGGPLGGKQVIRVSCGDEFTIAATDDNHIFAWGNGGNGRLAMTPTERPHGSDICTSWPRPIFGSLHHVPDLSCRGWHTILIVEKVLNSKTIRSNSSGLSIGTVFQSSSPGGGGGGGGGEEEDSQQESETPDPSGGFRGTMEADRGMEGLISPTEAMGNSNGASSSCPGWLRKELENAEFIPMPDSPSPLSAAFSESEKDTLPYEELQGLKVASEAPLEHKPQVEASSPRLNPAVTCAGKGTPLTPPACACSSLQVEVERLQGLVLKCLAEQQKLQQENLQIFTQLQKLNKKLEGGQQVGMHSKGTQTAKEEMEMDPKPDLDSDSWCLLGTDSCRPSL
# [9] = target: panel of 255 wild-type kinases (Homo sapiens, UniProt P21802)
# [10] = kinase FGFR1, 1 µmol/L single concentration, ref DOI: 10.1158/1535-7163.MCT-18-0877
# [11] = kinase HER4, 1 µmol/L single concentration, ref DOI: 10.1158/1535-7163.MCT-18-0877
# [12] = kinase EPHA3, 1 µmol/L single concentration, ref DOI: 10.1158/1535-7163.MCT-18-0877
# [13] = kinase CK1δ, 1 µmol/L single concentration, ref DOI: 10.1158/1535-7163.MCT-18-0877
# [14] = ACK kinase assay, 1 µmol/L single concentration, ref DOI: 10.1158/1535-7163.MCT-18-0877
# [15] = PASK, 1 µmol/L single concentration, ref DOI: 10.1158/1535-7163.MCT-18-0877
# [16] = kinase HER2, 1 µmol/L single concentration, ref DOI: 10.1158/1535-7163.MCT-18-0877
# [17] = NEK9, 1 µmol/L single concentration, ref DOI: 10.1158/1535-7163.MCT-18-0877
# [18] = kinase FGFR2, 1 µmol/L single concentration, ref DOI: 10.1158/1535-7163.MCT-18-0877
# [19] = kinase FGFR1, 1 µmol/L single concentration, ref DOI: 10.1371/journal.pone.0092146
# [20] = kinase HER4, 1 µmol/L single concentration, ref DOI: 10.1371/journal.pone.0092146
# [21] = kinase EPHA3, 1 µmol/L single concentration, ref DOI: 10.1371/journal.pone.0092146
# [22] = kinase CK1δ, 1 µmol/L single concentration, ref DOI: 10.1371/journal.pone.0092146
# [23] = ACK kinase assay, 1 µmol/L single concentration, ref DOI: 10.1371/journal.pone.0092146
# [24] = PASK, 1 µmol/L single concentration, ref DOI: 10.1371/journal.pone.0092146
# [25] = NEK9, 1 µmol/L single concentration, ref DOI: 10.1371/journal.pone.0092146
# [26] = kinase FGFR2, 1 µmol/L single concentration, ref DOI: 10.1371/journal.pone.0092146
# [27] = kinase HER2, 1 µmol/L single concentration, ref DOI: 10.1371/journal.pone.0092146
Compound,"%-inhibition at 1 µmol/L, FGFR1 [1, 10] [%]","%-inhibition at 1 µmol/L, HER4 [2, 11] [%]","%-inhibition at 1 µmol/L, EPHA3 [3, 12] [%]","%-inhibition at 1 µmol/L, CK1δ [4, 13] [%]","%-inhibition ACK [5, 14] [%]","%-inhibition, PASK [6, 15] [%]","%-inhibition at 1 µmol/L, HER2 [7, 16] [%]","%-inhibition, NEK9 [8, 17] [%]","%-inhibition at 1 µmol/L, FGFR2 [9, 18] [%]",further results
CC#CC(=O)N1CCC[C@H]1c1nc(-c2ccc(C(=O)Nc3ccccn3)cc2)c2c(N)nccn12 [acalabrutinib],-2.28,78,-2,2.76,14,-5.37,16,-3.18,-6,–
CCc1cc2c(cc1N1CCC(N3CCOCC3)CC1)C(C)(C)c1[nH]c3cc(C#N)ccc3c1C2=O [alectinib],5.37,34,3.25,-5.53,42,-2.6,-1.77,0.368,2,–
COc1cc(N2CCC(N3CCN(C)CC3)CC2)ccc1Nc1ncc(Cl)c(Nc2ccccc2P(C)(C)=O)n1 [brigatinib],–,–,–,–,–,–,–,–,–,"%-inhibition at 1 µmol/L, FGFR1 [1]: 95%; %-inhibition at 1 µmol/L, HER4 [2]: 99%; %-inhibition at 1 µmol/L, EPHA3 [3]: 0.198%; %-inhibition at 1 µmol/L, CK1δ [4]: -3.62%; %-inhibition ACK [5]: 104%; %-inhibition, PASK [6]: -5%; %-inhibition at 1 µmol/L, HER2 [7]: 69%; %-inhibition, NEK9 [8]: 70%; %-inhibition at 1 µmol/L, FGFR2 [9]: 97%"
Cc1cc(Nc2ncc(Cl)c(Nc3ccccc3S(=O)(=O)C(C)C)n2)c(OC(C)C)cc1C1CCNCC1 [ceritinib],11,51,1.74,-6,103,1.28,9,9,15,–
O=C(c1ccc(F)c(F)c1Nc1ccc(I)cc1F)N1CC(O)([C@@H]2CCCCN2)C1 [cobimetinib],-1.33,11,2,-2.63,7,1.07,-1.21,-2.32,-2.8,–
C[C@@H](Oc1cc(-c2cnn(C3CCNCC3)c2)cnc1N)c1c(Cl)ccc(F)c1Cl [crizotinib],–,–,–,–,–,–,–,–,–,"%-inhibition at 1 µmol/L, FGFR1 [1, 19]: 17%; %-inhibition at 1 µmol/L, HER4 [2, 20]: -18%; %-inhibition at 1 µmol/L, EPHA3 [3, 21]: 19%; %-inhibition at 1 µmol/L, CK1δ [4, 22]: 9%; %-inhibition ACK [5, 23]: 56%; %-inhibition, PASK [6, 24]: 1%; %-inhibition at 1 µmol/L, HER2 [7]: -0.714%; %-inhibition, NEK9 [8, 25]: 57%; %-inhibition at 1 µmol/L, FGFR2 [9, 26]: 27%"
CC(C)(C)c1nc(-c2cccc(NS(=O)(=O)c3c(F)cccc3F)c2F)c(-c2ccnc(N)n2)s1 [dabrafenib],–,–,–,–,–,–,–,–,–,"%-inhibition at 1 µmol/L, FGFR1 [1, 19]: 10%; %-inhibition at 1 µmol/L, HER4 [2, 20]: 23%; %-inhibition at 1 µmol/L, EPHA3 [3, 21]: 18%; %-inhibition at 1 µmol/L, CK1δ [4, 22]: 8.51%; %-inhibition ACK [5, 23]: 24%; %-inhibition, PASK [6, 24]: 1.12%; %-inhibition at 1 µmol/L, HER2 [7, 27]: 50%; %-inhibition, NEK9 [8, 25]: 101%; %-inhibition at 1 µmol/L, FGFR2 [9, 26]: 4%"
C=CC(=O)N1CCC[C@@H](n2nc(-c3ccc(Oc4ccccc4)cc3)c3c(N)ncnc32)C1 [ibrutinib],71,99,3.8,7.46,73,-0.0437,100,-3.28,81,–
CO[C@@H]1[C@H](N(C)C(=O)c2ccccc2)C[C@H]2O[C@]1(C)n1c3ccccc3c3c4c(c5c6ccccc6n2c5c31)C(=O)NC4 [midostaurin],93,77,8,–,102,6,63,48,97,"%-inhibition at 1 µmol/L, CK1δ [4]: -2%"
C=CC(=O)Nc1cc(Nc2nccc(-c3cn(C)c4ccccc34)n2)c(OC)cc1N(C)CCN(C)C [osimertinib],3.51,96,0.753,7.49,100,2.58,100,9,5.56,–
CC(=O)Nc1cccc(-n2c(=O)n(C3CC3)c(=O)c3c(Nc4ccc(I)cc4F)n(C)c(=O)c(C)c32)c1 [trametinib],–,–,–,–,–,–,–,–,–,"%-inhibition at 1 µmol/L, FGFR1 [1, 19]: -1.45%; %-inhibition at 1 µmol/L, HER4 [2, 20]: 2.34%; %-inhibition at 1 µmol/L, EPHA3 [3, 21]: -6%; %-inhibition at 1 µmol/L, CK1δ [4, 22]: 0.365%; %-inhibition ACK [5, 23]: -5.39%; %-inhibition, PASK [6, 24]: -0.187%; %-inhibition at 1 µmol/L, HER2 [7, 27]: -5.36%; %-inhibition, NEK9 [8, 25]: -3%; %-inhibition at 1 µmol/L, FGFR2 [9, 26]: -2.64%"
